System: CYP1B1
Experiment: Cell-based CYP1B1 enzyme activity assay (Luciferin-CEE luminescence, normalized to genomic DNA) in 10F-HDF spheroid-scaffold culture
Settings: addition to the spheroid-scaffold culture of 10F-HDFs (GCH tri-copolymer scaffold); FIG. 5B

In the case of COc1ccc2[nH]c([S+]([O-])Cc3ncc(C)c(OC)c3C)nc2c1 (stereo not shown) [omeprazole], the “induction of CYP1B1 activities” value is reported as “did not induce”.
